From patent US20180085341A1, “METHODS FOR TREATING CANCER” (BOSTON BIOMEDICAL, INC., priority 2015, published 2018)
pIC50: −log10 of the molar value.

What was measured:
p-Stat3 and β-catenin = assay: cancer stemness biomarkers in human colon cancer xenograft tumor (SW480), immunofluorescence; type: in vivo; settings: SW480 xenograft in nude mice, e.g. 50 mg/kg BID oral gavage, tumors harvested 24 hours after first dosing, FIG. 5
Experimental: The effects of 2-acetylnaphtho[2,3-b]furan-4,9-dione, a compound of formula (I), on cancer stem cell markers was examined in cancer xenograft models with and without paclitaxel.
Human cancer cells were subcutaneously implanted into the right flank of 5-7 weeks old female athymic nude mice. When tumor size reached 200 mm^3, animals were treated with 2-acetylnaphtho[2,3-b]furan-4,9-dione, for example, at 50 mg/kg (BID) by oral gavage (n=3/group), paclitaxel, or a combination of 2-acetylnaphtho[2,3-b]furan-4,9-dione and paclitaxel. Tumors were harvested at 24 hours after first dosing.
The harvested tissues were fixed in 3.7% neutral buffered formaldehyde at 4° C. for overnight. The paraffin was embedded, cut to about 5 microns, and affixed onto positively-charged slides. After being baked and de-paraffinized, the slides with tumor or control tissues were incubated in 10 mM sodium citrate (pH 6.0) for 10 minutes. After antigen retrieval, slides were probed with primary antibodies P-STAT3 (rabbit, Cell Signaling, 1:100), β-Catenine (mouse, Santa Cruz, 1:400) at 4° C. overnight, and then Alexa Fluor fluorescent dyes-conjugated secondary antibodies (1:500, Invitrogen). After mounting, the slides with ProLong mounting medium with DAPI (Invitrogen) were examined under a Zeiss fluorescence microscope with 20× objective, and analyzed with Zen software.

[1] = test system: human lung cancer xenograft (A549); assay: human lung cancer xenograft (A549) model, metabolic tumor volume; type: in vivo, mice; settings: 2-acetylnaphtho[2,3-b]furan-4,9-dione 100 mg/kg daily oral, paclitaxel 10.0 mg/kg q3d iv, relative to control, FIG. 7
Experimental: The effects of 2-acetylnaphtho[2,3-b]furan-4,9-dione was examined in a human lung cancer xenograft (A549) model. Human lung cancer cells were implanted in mice and the resulting tumors were allowed to grow to a pre-determined size. Mice were treated orally with vehicle, 2-acetylnaphtho[2,3-b]furan-4,9-dione (100 mg/kg, daily, oral), paclitaxel (10.0 mg/kg, q3d, iv), or the combination of 2-acetylnaphtho[2,3-b]furan-4,9-dione (100 mg/kg, daily, oral) and paclitaxel (10.0 mg/kg, q3d, iv). The tumor sizes were monitored.

[2] = test system: cancer patients (CRC patients); assay: clinical trials, survival by Stat3/pStat3 expression level; type: in vivo, human; settings: after treatment in clinical trials; at least in CRC patients
Text: Thus, the higher the level of pStat3 found in a cancer patient before treatment, at least in CRC patients, the higher the overall survival (OS) upon administering a treatment comprising a compound of formula (I).

[3] = open label phase Ib dose-escalation study, safety, tolerability and RP2D; type: in vivo, human; settings: in combination with weekly paclitaxel
Experimental: In the open label phase lb dose-escalation study, the safety, tolerability and recommended phase 2 dose (RP2D) of 2-acetylnaphtho[2,3-b]furan-4,9-dione in combination with paclitaxel were assessed in adult patients with advanced solid tumors.
The effects of 2-acetylnaphtho[2,3-b]furan-4,9-dione in combination with paclitaxel were clinically evaluated. […] Phase II accrual to disease-specific cohorts included patients with advanced, heavily pre-treated metastatic non-small cell lung cancer (NSCLC).

Stat3 pathway = settings: cellular; according to U.S. Pat. No. 8,877,803; cited from earlier work
pStat3 and β-catenin = assay: cancer stemness biomarkers in pancreatic adenocarcinoma cancer stem cells (Panc-1) in vitro; type: cell-based, human; settings: Panc-1 cancer stem cells, FIG. 6
[4] = test system: patients with advanced, previously treated pancreatic adenocarcinoma; settings: weekly paclitaxel alone; Oettle et al, Anticancer Drugs 2000; cited from earlier work

Structure (SMILES) | expression of p-Stat3 and β-catenin stem cell markers (p-Stat3 and β-catenin) | metabolic tumor volume [1] | overall survival of patients with higher expression levels of Stat3 [2] | recommended phase 2 dose of 2-acetylnaphtho[2,3-b]furan-4,9-dione [3] [mg BID] | pIC50 (Stat3 pathway) | staining for stem cell markers (pStat3, β-catenin) (pStat3 and β-catenin) | median overall survival (mOS) [4]
CC(=O)c1cc2c(o1)C(=O)c1ccccc1C2=O [2-acetylnaphtho[2,3-b]furan-4,9-dione] | dramatically reduced expression | reduced metabolic tumor volume relative to control | prolonged overall survival | 480 | ~6.60 |  | 
CC(=O)O[C@H]1C(=O)[C@@]2(C)[C@H]([C@H](OC(=O)c3ccccc3)[C@]3(O)C[C@H](OC(=O)[C@H](O)[C@@H](NC(=O)c4ccccc4)c4ccccc4)C(C)=C1C3(C)C)[C@]1(OC(C)=O)CO[C@@H]1C[C@@H]2O [paclitaxel] |  | reduced metabolic tumor volume relative to control |  |  |  | enhanced staining | about 17.5 weeks
